Ends that are not written are not given here.
Key:
Format in all cases: in vivo, human
[1] = system: patients with benign prostatic hyperplasia (BPH); test: Double-blind BPH study, single intraprostatic injection followed by conventional oral BPH medications, IPSS (Example One); settings: NTP peptide plus additional oral medication vs placebo plus additional oral medication
From the text: In a study of 97 patients who had or had not previously ever taken conventional approved oral medications for their benign prostatic hyperplasia (BPH), the patients received a double-blind single injection of a specific peptide described by the amino acid sequence Ile-Asp-Gln-Gln-Val-Leu-Ser-Arg-Ile-Lys-Leu-Glu-Ile-Lys-Arg-Cys-Leu (hereinafter “DRUG”) (n=61) or vehicle alone (placebo) (n=36) and were followed clinically for 2-5 years. Patients with BPH were given an intraprostatic injection of either a) DRUG in phosphate buffered saline pH 7.2 (“PBS”) or b) PBS alone, under double-blind conditions by a urologist in an office setting under ultrasound guidance. Patients were followed for 2 to 5 years with regular physical examinations, laboratory tests, and evaluations of symptoms. […]
Symptomatic evaluation was measured by the International Prostate Symptom Score (IPSS) which is a quantitative scale used to gauge prostatic symptomatic improvement or worsening. The IPSS quantifies the following: 1) incomplete bladder emptying after urination; 2) frequent urination; 3) stopping and starting during urination; 4) urgent need to urinate; 5) weakness of urinary stream; 6) need to push or strain during urination; 7) need to urinate after going to sleep at night (nocturia). […]

[2] = system: patients with BPH not previously on conventional oral medications; test: BPH study in patients never before on oral BPH medications, injection then oral medications, Symptom Score (Example Two)
Protocol: In a study of 30 patients who had not previously ever taken conventional approved oral medications for their BPH, the patients received a double-blind single injection of DRUG (n=21) or vehicle alone (placebo) (n=9) and were followed clinically for 2-5 years. Patients from both of the above drug and vehicle only placebo groups who had not previously received conventional oral medications and subsequently went on conventional oral medications were evaluated for their responses to the conventional oral BPH medications.

patients with BPH = test: Cross-over study: BPH patients on PBS plus oral medication, then additional DRUG injection, IPSS (Example Three); settings: same patients after cross-over to DRUG vs PBS + oral medication
Protocol: In another study, patients with BPH were given an intraprostatic injection of PBS pH 7.2 vehicle alone, under double-blind conditions by a urologist in an office setting under ultrasound guidance. Patients were followed for 1 to 3 years with regular physical examinations, laboratory tests, and evaluations of symptoms. Patients who received PBS vehicle alone injections and who subsequently received in addition conventional oral medications used to treat BPH such as alpha blockers were assessed before and after receiving an additional injection of DRUG in phosphate buffered saline pH 7.2 (“PBS”). Symptomatic evaluation was measured by the International Prostate Symptom Score (IPSS) which is a quantitative scale used to gauge prostatic symptomatic improvement or worsening. The difference from baseline IPSS was compared in patients who were given blinded PBS only plus conventional oral medications vs results in the same patients on oral medications after cross-over to DRUG.

[3] = system: patients with BPH who subsequently underwent surgical treatment; test: BPH study: single injection, subsequent surgical treatment, Symptom Score (Example Four)
From the text: 973 patients who had not previously ever undergone surgical procedures for their BPH (including all types of surgical procedures such as transurethral resection of the prostate, laser ablation, microwave, needle ablation, and other minimally invasive surgical treatments) received a double-blind single injection of DRUG or vehicle alone (placebo) and were followed clinically for 2-5 years. All (N=58) patients from the above drug and vehicle alone placebo groups who had not previously undergone surgical treatment for their BPH and who subsequently underwent surgical treatment for their BPH (N=58) were then evaluated for their responses to the surgical procedures.

Sequence: IDQQVLSRIKLEIKRCL [DRUG]
- Mean IPSS Improvement, when compared to the control [1]: about 40%
- Mean IPSS Improvement, when compared to the control ([2]; naive patients, NTP peptide then oral medication vs placebo then oral medication): about 221%
- mean improvement in Symptom Score ([2]; oral-medication-naive patients, single injection then conventional oral BPH medication, 2-5 years, n=21): 7.48 points
- Mean IPSS Improvement, when compared to the control (patients with BPH): about 110%
- Mean IPSS Improvement, when compared to the control ([3]; NTP peptide prior to surgical treatment vs placebo prior to surgery): about 142%
- mean improvement in Symptom Score after surgery ([3]; single injection, subsequent surgical treatment for BPH, n=31): 15.3 points

Reference: patent US20160361380A1, “COMBINATION COMPOSITIONS FOR TREATING DISORDERS REQUIRING REMOVAL OR DESTRUCTION OF UNWANTED CELLULAR PROLIFERATIONS” (Nymox Corporation, priority 2015, published 2016)
